From patent US20080026417A1, “ASSAYS FOR TRICHOMONAL AND OTHER HYDROLASES” (priority 2002, published 2008)
Peptide text beside a SMILES is read from it. * marks the point of attachment. NH(4-MeO-2-naphthyl) = COc1cc(N*)cc2ccccc12; βNA = c1ccc2cc(N*)ccc2c1; Cbz = O=C(OCc1ccccc1)*; Bz = O=C(c1ccccc1)*

How the values were obtained:
trichomonal hydrolases [1] = assay: Experiment 13: hydrolysis of peptide substrates by trichomonal hydrolases at low pH, no vaginal fluid; assay type: biochemical, Trichomonas vaginalis; parameters: key: −: No red color produced; +: Clearly visible red color produced; ++: Moderately intense red color produced; +++: Very intense red color produced; details: without vaginal fluid; threonine buffer pH 2.4; 2 mM substrate solution; 10 min 25° C.; Fast Garnet
Protocol: Forty μL of each substrate was pipetted into duplicate wells of a microtiter plate. The plate was covered with tape, placed into a 25° C. incubator, and allowed to warm. A diluted enzyme mixture was prepared by mixing one part (v/v) freshly-thawed trichomonal hydrolase solution to nine parts 2 mM L-cysteine solution. Forty μL of this mixture was added to one well of each pair of duplicate wells. For negative controls, 40 μL of 2 mM L-cysteine was added to the second well in each pair of duplicate wells. The plate was returned to the incubator and incubated for ten minutes. Forty μL of SDS/acetate solution was added to each well, followed by 40 μL of Fast Garnet solution. The intensity of color that developed in each well after five minutes was visually scored using the color scale presented in Table 13.1.

trichomonal hydrolases [2] = assay: Experiment 12: hydrolysis of ZRRR-MNA by trichomonal hydrolases in four buffers; assay type: biochemical, Trichomonas vaginalis; details: for Score: substrate ZRRR-MNA, Fast Red RL, 0-9 scale
Protocol: Fifty μL of each buffer solution, at pH 2.0, 2.2, 2.4, or 2.6, was pipetted into separate wells of a microtiter plate. Twenty-five μL of 8 mM ZRRR-MNA and 25 μL of 10% trichomonal hydrolase solution were added to each well, and 20 μL were then removed from each well for measurement of final pH. Ten minutes after the mixtures were made, a Dacron swab was inserted into each well to absorb the liquid, then each swab was rubbed on a Fast Red RL film. The intensity of pink color that developed on each swab after five minutes was visually scored in 0.5 unit increments using the 0-9 color scale presented in Table 11.1 of the preceding example.

[3] = pH 2.0 Buffer after mixing with substrate and trichomonal hydrolase solution
[4] = pH 2.2 Buffer after mixing with substrate and trichomonal hydrolase solution
[5] = pH 2.4 Buffer after mixing with substrate and trichomonal hydrolase solution
[6] = pH 2.6 Buffer after mixing with substrate and trichomonal hydrolase solution

## NC(N)=NCCCC(NC(=O)c1ccccc1)C(=O)Nc1ccc2ccccc2c1 (racemic) [BZ-DL-Arg-βNA]
Trichomonal hydrolases [1]
  Color Score: −

## O=C(O)CC(O)C(=O)O (racemic) [DL-malic acid]
Trichomonal hydrolases [2]; pH 2.0 Buffer (100 mM)
  Score: 4.5
Trichomonal hydrolases [2]; [3]
  Final pH: pH 2.4
Trichomonal hydrolases [2]; pH 2.2 Buffer (100 mM)
  Score: 5.5
Trichomonal hydrolases [2]; [4]
  Final pH: pH 2.7
Trichomonal hydrolases [2]; pH 2.4 Buffer (100 mM)
  Score: 6.0
Trichomonal hydrolases [2]; [5]
  Final pH: pH 2.8
Trichomonal hydrolases [2]; pH 2.6 Buffer (100 mM)
  Score: 6.0
Trichomonal hydrolases [2]; [6]
  Final pH: pH 2.9

## C[C@H](N)C(=O)N[C@@H](C)C(=O)Nc1ccc2ccccc2c1 [Ala-Ala-βNA] (H-Ala-Ala-βNA)
Trichomonal hydrolases [1]
  Color Score: −

## C[C@H](N)C(=O)Nc1ccc2ccccc2c1 [Ala-βNA]
Trichomonal hydrolases [1]
  Color Score: −

## N=C(N)NCCC[C@H](NC(=O)[C@@H](N)CCCNC(=N)N)C(=O)Nc1ccc2ccccc2c1 [Arg-Arg-βNA] (H-Arg-Arg-βNA)
Trichomonal hydrolases [1]
  Color Score: −

## COc1cc(NC(=O)[C@@H](N)CCCN=C(N)N)cc2ccccc12 [Arg-MNA]
Trichomonal hydrolases [1]
  Color Score: −

## NC(N)=NCCC[C@H](N)C(=O)Nc1ccc2ccccc2c1 [Arg-βNA]
Trichomonal hydrolases [1]
  Color Score: −

## COc1cc(NC(=O)[C@H](C)NC(=O)[C@H](C)NC(=O)[C@H](CCC(N)=O)NC(=O)OC(C)(C)C)cc2ccccc12 [BOC-Gln-Ala-Ala-MNA]
Trichomonal hydrolases [1]
  Color Score: −

## COc1cc(NC(=O)C(CCCNC(=N)N)NC(=O)C(C)NC(=O)C(CCC(N)=O)NC(=O)OC(C)(C)C)cc2ccccc12 (stereo not drawn) [BOC-Gln-Ala-Arg-MNA]
Trichomonal hydrolases [1]
  Color Score: −

## COc1cc(NC(=O)[C@H](CCCNC(=N)N)NC(=O)c2ccccc2)cc2ccccc12 [BZ-Arg-MNA]
Trichomonal hydrolases [1]
  Color Score: −

## N=C(N)NCCC[C@H](NC(=O)[C@H](Cc1ccccc1)NC(=O)[C@@H]1CCCN1C(=O)c1ccccc1)C(=O)Nc1ccc2ccccc2c1 [BZ-Pro-Phe-Arg-βNA] (Bz-Pro-Phe-Arg-βNA)
Trichomonal hydrolases [1]
  Color Score: −

## COc1cc(NC(=O)C(CC(C)C)NC(=O)C(Cc2ccccc2)NC(=O)CNC(=O)C(CCCNC(=N)N)NC(=O)OCc2ccccc2)cc2ccccc12 (stereo not drawn) [CBZ-Arg-Gly-Phe-Leu-MNA] (Cbz-RGFL-{NH(4-MeO-2-naphthyl)}; configuration not given here)
Trichomonal hydrolases [1]
  Color Score: −

## COc1cc(NC(=O)C(CCCNC(=N)N)NC(=O)OCc2ccccc2)cc2ccccc12 (centres unmarked) [CBZ-Arg-MNA]
Trichomonal hydrolases [1]
  Color Score: −

## COc1cc(NC(=O)[C@H](CCCNC(=N)N)NC(=O)CNC(=O)CNC(=O)OCc2ccccc2)cc2ccccc12 [CBZ-Gly-Gly-Arg-MNA]
Trichomonal hydrolases [1]
  Color Score: −

## CC(C)C[C@H](NC(=O)CNC(=O)CNC(=O)OCc1ccccc1)C(=O)Nc1ccc2ccccc2c1 [CBZ-Gly-Gly-Leu-βNA] (Cbz-Gly-Gly-Leu-βNA)
Trichomonal hydrolases [1]
  Color Score: −

## O=C(CNC(=O)OCc1ccccc1)NCC(=O)N[C@@H](Cc1ccccc1)C(=O)Nc1ccc2ccccc2c1 [CBZ-Gly-Gly-Phe-βNA] (Cbz-Gly-Gly-Phe-βNA)
Trichomonal hydrolases [1]
  Color Score: −

## COc1cc(NC(=O)C(CCCNC(=N)N)NC(=O)C2CCCN2C(=O)CNC(=O)OCc2ccccc2)cc2ccccc12 (stereo not drawn) [CBZ-Gly-Pro-Arg-MNA]
Trichomonal hydrolases [1]
  Color Score: −

## COc1cc(NC(=O)[C@H](CCCNC(=N)N)NC(=O)[C@H](CCCNC(=N)N)NC(=O)[C@H](CC(C)C)NC(=O)OCc2ccccc2)cc2ccccc12 [CBZ-Leu-Arg-Arg-MNA]
Trichomonal hydrolases [1]
  Color Score: +

## COc1cc(NC(=O)[C@H](CCCNC(=N)N)NC(=O)[C@H](CCCCN)NC(=O)[C@H](CCCCN)NC(=O)OCc2ccccc2)cc2ccccc12 [CBZ-Lys-Lys-Arg-MNA]
Trichomonal hydrolases [1]
  Color Score: +

## NCCCC[C@H](NC(=O)OCc1ccccc1)C(=O)Nc1ccc2ccccc2c1 [CBZ-Lys-βNA]
Trichomonal hydrolases [1]
  Color Score: −

## COc1cc(NC(=O)[C@H](CCCN=C(N)N)NC(=O)[C@H](CCCCN)NC(=O)[C@H](CCCCN)NC(=O)[C@@H](NC(=O)OCc2ccccc2)C(C)C)cc2ccccc12 [CBZ-Val-Lys-Lys-Arg-MNA] (Cbz-VKKR-{NH(4-MeO-2-naphthyl)})
Trichomonal hydrolases [1]
  Color Score: +

## COc1cc(NC(=O)C(Cc2ccccc2)NC(=O)CNC(=O)C(N)CCC(N)=O)cc2ccccc12 (stereo not drawn) [Gln-Gly-Phe-MNA]
Trichomonal hydrolases [1]
  Color Score: −

## COc1cc(NC(=O)C(CCCN=C(N)N)NC(=O)CN)cc2ccccc12 (stereo not drawn) [Gly-Arg-MNA]
Trichomonal hydrolases [1]
  Color Score: −

## NCC(=O)N[C@@H](CCCN=C(N)N)C(=O)Nc1ccc2ccccc2c1 [Gly-Arg-βNA] (H-Gly-Arg-βNA)
Trichomonal hydrolases [1]
  Color Score: −

## NCC(=O)NCC(=O)Nc1ccc2ccccc2c1 [Gly-Gly-βNA] (H-Gly-Gly-βNA)
Trichomonal hydrolases [1]
  Color Score: −

## COc1cc(NC(=O)C(Cc2ccccc2)NC(=O)CN)cc2ccccc12 (stereo not drawn) [Gly-Phe-MNA]
Trichomonal hydrolases [1]
  Color Score: −

## NCC(=O)N[C@@H](Cc1ccccc1)C(=O)Nc1ccc2ccccc2c1 [Gly-Phe-βNA] (H-Gly-Phe-βNA)
Trichomonal hydrolases [1]
  Color Score: −

## COc1cc(NC(=O)[C@@H]2CCCN2C(=O)CN)cc2ccccc12 [Gly-Pro-MNA]
Trichomonal hydrolases [1]
  Color Score: −

## NCC(=O)N[C@@H](Cc1c[nH]c2ccccc12)C(=O)Nc1ccc2ccccc2c1 [Gly-Trp-βNA] (H-Gly-Trp-βNA)
Trichomonal hydrolases [1]
  Color Score: −

## NCC(=O)Nc1ccc2ccccc2c1 [Gly-βNA]
Trichomonal hydrolases [1]
  Color Score: −

## NCC(=O)O [Glycine]
Trichomonal hydrolases [2]; pH 2.0 Buffer (100 mM)
  Score: 5.0
Trichomonal hydrolases [2]; [3]
  Final pH: pH 2.4
Trichomonal hydrolases [2]; pH 2.2 Buffer (100 mM)
  Score: 6.0
Trichomonal hydrolases [2]; [4]
  Final pH: pH 2.6
Trichomonal hydrolases [2]; pH 2.4 Buffer (100 mM)
  Score: 6.0
Trichomonal hydrolases [2]; [5]
  Final pH: pH 2.7
Trichomonal hydrolases [2]; pH 2.6 Buffer (100 mM)
  Score: 6.0
Trichomonal hydrolases [2]; [6]
  Final pH: pH 2.9

## COc1cc(NC(=O)C(CO)NC(=O)C(N)Cc2cnc[nH]2)cc2ccccc12 (stereo not drawn) [His-Ser-MNA]
Trichomonal hydrolases [1]
  Color Score: −

## N[C@@H](Cc1cnc[nH]1)C(=O)Nc1ccc2ccccc2c1 [His-βNA]
Trichomonal hydrolases [1]
  Color Score: −

## O=C(Nc1ccc2ccccc2c1)[C@@H]1C[C@@H](O)CN1 [Hyp-βNA]
Trichomonal hydrolases [1]
  Color Score: −

## CC[C@H](C)[C@H](N)C(=O)Nc1ccc2ccccc2c1 [Ile-βNA]
Trichomonal hydrolases [1]
  Color Score: −

## NCCCC[C@H](N)C(=O)O [L-lysine]
Trichomonal hydrolases [2]; pH 2.0 Buffer (100 mM)
  Score: 3.0
Trichomonal hydrolases [2]; [3]
  Final pH: pH 2.3
Trichomonal hydrolases [2]; pH 2.2 Buffer (100 mM)
  Score: 4.5
Trichomonal hydrolases [2]; [4]
  Final pH: pH 2.5
Trichomonal hydrolases [2]; pH 2.4 Buffer (100 mM)
  Score: 5.0
Trichomonal hydrolases [2]; [5]
  Final pH: pH 2.9
Trichomonal hydrolases [2]; pH 2.6 Buffer (100 mM)
  Score: 5.5
Trichomonal hydrolases [2]; [6]
  Final pH: pH 3.0

## C[C@@H](O)[C@H](N)C(=O)O [L-threonine]
Trichomonal hydrolases [2]; pH 2.0 Buffer (100 mM)
  Score: 3.5
Trichomonal hydrolases [2]; [3]
  Final pH: pH 2.3
Trichomonal hydrolases [2]; pH 2.2 Buffer (100 mM)
  Score: 6.0
Trichomonal hydrolases [2]; [4]
  Final pH: pH 2.4
Trichomonal hydrolases [2]; pH 2.4 Buffer (100 mM)
  Score: 6.5
Trichomonal hydrolases [2]; [5]
  Final pH: pH 2.7
Trichomonal hydrolases [2]; pH 2.6 Buffer (100 mM)
  Score: 6.0
Trichomonal hydrolases [2]; [6]
  Final pH: pH 2.9

## CC(C)C[C@H](N)C(=O)N[C@@H](C)C(=O)Nc1ccc2ccccc2c1 [Leu-Ala-βNA] (H-Leu-Ala-βNA)
Trichomonal hydrolases [1]
  Color Score: −

## COc1cc(NC(=O)C(N)CC(C)C)cc2ccccc12.Cl (centres unmarked) [Leu-MNA]
Trichomonal hydrolases [1]
  Color Score: −

## CC(C)C[C@H](N)C(=O)Nc1ccc2ccccc2c1 [Leu-βNA]
Trichomonal hydrolases [1]
  Color Score: −

## C[C@H](NC(=O)[C@@H](N)CCCCN)C(=O)Nc1ccc2ccccc2c1 [Lys-Ala-βNA] (H-Lys-Ala-βNA)
Trichomonal hydrolases [1]
  Color Score: −

## NCCCC[C@H](N)C(=O)Nc1ccc2ccccc2c1 [Lys-βNA]
Trichomonal hydrolases [1]
  Color Score: −

## N=C(N)NCCC[C@H](NC(=O)[C@@H](N)Cc1ccccc1)C(=O)Nc1ccc2ccccc2c1 [Phe-Arg-βNA] (H-Phe-Arg-βNA)
Trichomonal hydrolases [1]
  Color Score: −

## COc1cc(NC(=O)[C@@H](N)Cc2ccccc2)cc2ccccc12 [Phe-MNA]
Trichomonal hydrolases [1]
  Color Score: −

## N[C@@H](Cc1ccccc1)C(=O)Nc1ccc2ccccc2c1 [Phe-βNA]
Trichomonal hydrolases [1]
  Color Score: −

## COc1cc(NC(=O)C(CCCN=C(N)N)NC(=O)C2CCCN2)cc2ccccc12 (stereo not drawn) [Pro-Arg-MNA]
Trichomonal hydrolases [1]
  Color Score: −

## O=C(Nc1ccc2ccccc2c1)[C@@H]1CCCN1 [Pro-βNA]
Trichomonal hydrolases [1]
  Color Score: −

## CSCC[C@H](NC(=O)[C@@H](N)CO)C(=O)Nc1ccc2ccccc2c1 [Ser-Met-βNA] (H-Ser-Met-βNA)
Trichomonal hydrolases [1]
  Color Score: −

## N[C@@H](CO)C(=O)N[C@@H](Cc1ccc(O)cc1)C(=O)Nc1ccc2ccccc2c1 [Ser-Tyr-βNA] (H-Ser-Tyr-βNA)
Trichomonal hydrolases [1]
  Color Score: −

## N[C@@H](CO)C(=O)Nc1ccc2ccccc2c1 [Ser-βNA]
Trichomonal hydrolases [1]
  Color Score: −

## N[C@@H](Cc1c[nH]c2ccccc12)C(=O)Nc1ccc2ccccc2c1 [Trp-βNA]
Trichomonal hydrolases [1]
  Color Score: −

## CC(C)[C@H](N)C(=O)Nc1ccc2ccccc2c1 [Val-βNA]
Trichomonal hydrolases [1]
  Color Score: −

## CBZ-Val-Leu-Arg-MNA
Trichomonal hydrolases [1]
  Color Score: +

## Cbz-Arg-Arg-βNA
Trichomonal hydrolases [1]
  Color Score: −

## Pro-MNA
Trichomonal hydrolases [1]
  Color Score: −
